Data on 17 compounds can be found in PubChem BioAssay AID248 (DTP/NCI, 2004).

This assay deals with L1210 leukemia ip in BDF1 mice, survival T/C. Kind of assay: NCI In Vivo Anticancer Drug Screen. Data for tumor model L1210 Leukemia (intraperitoneal) in B6D2F1 (BDF1) mice. Conditions: endpoint: mean survival time, higher = longer survival. The essentials:
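Tumor cells were implanted, animals were treated, and survival was followed. The result divides the treated measurement by the vehicle-control measurement.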

Setting [1] is: dose: 50.0 mg/kg/injection, schedule: Q04DX002 (ip), vehicle: saline with Tween-80.
Setting [2] is: dose: 100.0 mg/kg/injection, schedule: Q04DX002 (ip), vehicle: saline with Tween-80.
[3] abbreviates: dose: 200.0 mg/kg/injection, schedule: Q04DX002 (ip), vehicle: saline with Tween-80.
[4] abbreviates: dose: 400.0 mg/kg/injection, schedule: Q04DX002 (ip), vehicle: saline with Tween-80.
Where [5] appears, read: dose: 100.0 mg/kg/injection, schedule: Q01DX001 (ip), vehicle: saline with Tween-80.
Where [6] appears, read: dose: 100.0 mg/kg/injection, schedule: Q01DX009 (ip), vehicle: saline with Tween-80.
Where [7] appears, read: dose: 100.0 mg/kg/injection, schedule: Q04DX003 (ip), vehicle: saline with Tween-80.
[8] abbreviates: dose: 200.0 mg/kg/injection, schedule: Q01DX001 (ip), vehicle: saline with Tween-80.
The mark [9] stands for this setting: dose: 200.0 mg/kg/injection, schedule: Q01DX009 (ip), vehicle: saline with Tween-80.
Where [10] appears, read: dose: 200.0 mg/kg/injection, schedule: Q04DX003 (ip), vehicle: saline with Tween-80.
The mark [11] stands for this setting: dose: 400.0 mg/kg/injection, schedule: Q01DX001 (ip), vehicle: saline with Tween-80.
[12] abbreviates: dose: 400.0 mg/kg/injection, schedule: Q04DX003 (ip), vehicle: saline with Tween-80.
Setting [13] is: dose: 100.0 mg/kg/injection, schedule: Q01DX005 (ip), vehicle: saline.
[14] abbreviates: dose: 200.0 mg/kg/injection, schedule: Q01DX005 (ip), vehicle: saline.
[15] abbreviates: dose: 100.0 mg/kg/injection, schedule: Q01DX001 (ip), vehicle: carboxymethylcellulose (CMC).
[16] abbreviates: dose: 200.0 mg/kg/injection, schedule: Q01DX001 (ip), vehicle: carboxymethylcellulose (CMC).
Where [17] appears, read: dose: 50.0 mg/kg/injection, schedule: Q04DX003 (ip), vehicle: Klucel (hydroxypropylcellulose) (HPC).
[18] abbreviates: dose: 100.0 mg/kg/injection, schedule: Q04DX003 (ip), vehicle: Klucel (hydroxypropylcellulose) (HPC).

Where “and” joins values, the source holds several entries; their conditions need not be identical. Equal values may be shown once. Inconclusive results and toxic doses are left out.

With `CCCCCCCC(CCCCCC)CCCCCCC`, the T/C runs as follows: under setting [1], 89 % of control; under setting [2], 110 % of control; under setting [3], 103 % of control; under setting [4], 106 % of control.
For the compound `CCOC(=O)C(O)(CC)c1ccncc1Br` (stereo unspecified), the T/C (dose: 75.0 mg/kg/injection, schedule: Q04DX003 (ip), vehicle: Klucel (hydroxypropylcellulose) (HPC)) is 95 % of control; the T/C (dose: 100.0 mg/kg/injection, schedule: Q01DX001 (ip), vehicle: Klucel (hydroxypropylcellulose) (HPC)) was 102 % of control; the T/C (dose: 150.0 mg/kg/injection, schedule: Q04DX003 (ip), vehicle: Klucel (hydroxypropylcellulose) (HPC)) was 91 % of control; the T/C (dose: 200.0 mg/kg/injection, schedule: Q01DX001 (ip), vehicle: Klucel (hydroxypropylcellulose) (HPC)) was 102 % of control; the T/C (dose: 300.0 mg/kg/injection, schedule: Q04DX003 (ip), vehicle: Klucel (hydroxypropylcellulose) (HPC)) was 101 % of control; the T/C (dose: 400.0 mg/kg/injection, schedule: Q01DX001 (ip), vehicle: Klucel (hydroxypropylcellulose) (HPC)) is 112 % of control.
Take `CC1(C)CS(=O)(=O)CC1=O`: the T/C (dose: 3.0 mg/kg/injection, schedule: Q01DX009 (ip), vehicle: other) is 103 % of control; the T/C (dose: 6.0 mg/kg/injection, schedule: Q01DX009 (ip), vehicle: other) was 102 % of control; the T/C (dose: 12.0 mg/kg/injection, schedule: Q01DX009 (ip), vehicle: other) was 94 % of control; the T/C (dose: 12.0 mg/kg/injection, schedule: Q04DX003 (ip), vehicle: saline) is 98 % of control; the T/C (dose: 25.0 mg/kg/injection, schedule: Q01DX009 (ip), vehicle: other) was 100 % of control; the T/C (dose: 25.0 mg/kg/injection, schedule: Q04DX003 (ip), vehicle: saline) is 101 % of control. In addition, the T/C was 96 % of control (dose: 50.0 mg/kg/injection, schedule: Q01DX009 (ip), vehicle: other) and 106 % of control (dose: 50.0 mg/kg/injection, schedule: Q04DX003 (ip), vehicle: saline).
In the case of `Cc1ccc(Cl)cc1NC(=O)N1CCCCC1C` (stereo unspecified), the T/C under setting [1] is 106 % of control and 92 % of control; the T/C under setting [5] was 109 % of control; the T/C under setting [6] was 95 % of control and 96 % of control; the T/C under setting [7] is 97 % of control; the T/C under setting [8] is 103 % of control; the T/C under setting [9] was 94 % of control and 100 % of control. The T/C reads like this: under setting [10], 103 % of control; under setting [11], 104 % of control; under setting [12], 95 % of control.
`Cc1ccc(Cl)cc1NC(=O)NCc1cccnc1`: the T/C under setting [5] is 93 % of control; the T/C under setting [6] was 103 % of control and 91 % of control; the T/C under setting [2] is 106 % of control and 88 % of control; the T/C under setting [7] is 107 % of control; the T/C under setting [8] was 90 % of control; the T/C under setting [9] was 104 % of control and 92 % of control. In addition, the T/C by setting is: under setting [3], 95 % of control and 89 % of control; under setting [10], 100 % of control; under setting [11], 90 % of control; (dose: 400.0 mg/kg/injection, schedule: Q01DX009 (ip), vehicle: saline with Tween-80) 96 % of control and 113 % of control; under setting [4], 95 % of control and 91 % of control; under setting [12], 103 % of control.
Regarding `CC(=O)c1ccc(NC(=O)N(CCCl)N=O)cc1`, the T/C (dose: 2.0 mg/kg/injection, schedule: Q01DX001 (ip), vehicle: carboxymethylcellulose (CMC)) was 122 % of control; the T/C (dose: 18.0 mg/kg/injection, schedule: Q01DX001 (ip), vehicle: carboxymethylcellulose (CMC)) was 190 % of control; the T/C (dose: 25.0 mg/kg/injection, schedule: Q01DX001 (ip), vehicle: carboxymethylcellulose (CMC)) is 152 % of control; the T/C (dose: 75.0 mg/kg/injection, schedule: Q01DX001 (ip), vehicle: carboxymethylcellulose (CMC)) is 191 % of control; the T/C (dose: 150.0 mg/kg/injection, schedule: Q01DX001 (ip), vehicle: carboxymethylcellulose (CMC)) was 160 % of control; the T/C (dose: 300.0 mg/kg/injection, schedule: Q01DX001 (ip), vehicle: carboxymethylcellulose (CMC)) was 97 % of control.
As for `COC(=O)c1n[nH]c(C2OCC3OC(C)(C)OC32)c1I` (stereo unspecified), the T/C by setting is: under setting [13], 98 % of control; under setting [14], 98 % of control.
Turning to `CN(C)CCCN`, the T/C is, setting by setting: (dose: 100.0 mg/kg/injection, schedule: Q01DX001 (ip), vehicle: saline) 97 % of control; (dose: 200.0 mg/kg/injection, schedule: Q01DX001 (ip), vehicle: saline) 108 % of control; (dose: 400.0 mg/kg/injection, schedule: Q01DX001 (ip), vehicle: saline) 95 % of control.
With `CCCC1(C(=O)OCC)CCCC1=O` (stereo unspecified), the T/C under setting [15] was 95 % of control; the T/C under setting [16] was 90 % of control; the T/C (dose: 400.0 mg/kg/injection, schedule: Q01DX001 (ip), vehicle: carboxymethylcellulose (CMC)) is 92 % of control.
In the case of `C#CC[N+]12CN3CN(CN(C3)C1)C2`, the T/C (dose: 100.0 mg/kg/injection, schedule: Q04DX003 (ip), vehicle: saline) is 101 % of control; the T/C (dose: 200.0 mg/kg/injection, schedule: Q04DX003 (ip), vehicle: saline) was 98 % of control; the T/C (dose: 400.0 mg/kg/injection, schedule: Q04DX003 (ip), vehicle: saline) is 102 % of control.
`CN(C)c1ccc(C#N)cc1`: the T/C reads like this: (dose: 1.5 mg/kg/injection, schedule: Q04DX002 (ip), vehicle: Klucel (hydroxypropylcellulose) (HPC)) 107 % of control; (dose: 3.1 mg/kg/injection, schedule: Q04DX002 (ip), vehicle: Klucel (hydroxypropylcellulose) (HPC)) 107 % of control; (dose: 6.25 mg/kg/injection, schedule: Q04DX002 (ip), vehicle: Klucel (hydroxypropylcellulose) (HPC)) 97 % of control and 111 % of control.
Turning to `S=c1[nH]c2ccc(Cl)cc2s1`, the T/C reads like this: (dose: 25.0 mg/kg/injection, schedule: Q01DX009 (ip), vehicle: Klucel (hydroxypropylcellulose) (HPC)) 101 % of control; (dose: 25.0 mg/kg/injection, schedule: Q04DX003 (ip), vehicle: Klucel (hydroxypropylcellulose) (HPC)) 115 % of control; (dose: 50.0 mg/kg/injection, schedule: Q01DX009 (ip), vehicle: Klucel (hydroxypropylcellulose) (HPC)) 97 % of control; under setting [17], 106 % of control; (dose: 100.0 mg/kg/injection, schedule: Q01DX009 (ip), vehicle: Klucel (hydroxypropylcellulose) (HPC)) 97 % of control; under setting [18], 96 % of control.
As to `C[C@]12CC[C@@H]3c4ccc(O)cc4CC[C@H]3[C@@H]1CC[C@@H]2O`, the T/C (dose: 500.0 mg/kg/injection, schedule: Q01DX Z (sc), vehicle: water) was 93 % of control and the T/C (dose: 1000.0 mg/kg/injection, schedule: Q01DX Z (sc), vehicle: water) is 90 % of control.
Turning to `CC(=O)Nc1ccc(S(=O)(=O)N2CC2)cc1`, the T/C is 102 % of control (dose: 50.0 mg/kg/injection, schedule: Q01DX005 (ip), vehicle: saline); 91 % of control under setting [17]; 96 % of control under setting [13]; 102 % of control under setting [18]; 102 % of control under setting [14]; 95 % of control (dose: 200.0 mg/kg/injection, schedule: Q04DX003 (ip), vehicle: Klucel (hydroxypropylcellulose) (HPC)).
For `COC(=O)C1=C(C(=O)OC)C(C(=O)OC)N2C=CC=CC2=C1C(=O)OC` (stereo unspecified), the T/C reads like this: (dose: 50.0 mg/kg/injection, schedule: Q01DX001 (ip), vehicle: carboxymethylcellulose (CMC)) 94 % of control; under setting [15], 89 % of control; under setting [16], 94 % of control.
As to `N#CC1=C(N)CCC(C#N)(c2ccccc2)C1` (stereo unspecified), the T/C reads like this: under setting [6], 98 % of control; under setting [9], 91 % of control.
`CCCCCCCCCCCC(=O)Nc1ccccc1C(F)(F)F`: the T/C (dose: 100.0 mg/kg/injection, schedule: Q01DX009 (ip), vehicle: acetone) was 96 % of control; the T/C (dose: 200.0 mg/kg/injection, schedule: Q01DX009 (ip), vehicle: acetone) is 95 % of control; the T/C (dose: 400.0 mg/kg/injection, schedule: Q01DX009 (ip), vehicle: acetone) was 94 % of control.
